Measurements taken from patent publication US20070014739A1, “Compositions and methods for controlling biofilms and bacterial infections” (priority 2005, published 2007).
Values joined by “and” are separate entries in the source; they are usually repeats but may differ in a detail not shown here. Identical values can stand only once.

What was measured:
[1] = system: E. coli clinical strain UT189; assay: Inhibition of biofilm formation, crystal violet, 96 well plates; assay type: cell-based; settings: Escherichia coli; 20 ug/ml; read-out: inhibited biofilm formation of the UT189 strain
Experimental: Biofilm inhibition experiments were conducted using an assay adapted from the reported protocol described in Pratt and Kolter, 1998, Molecular Microbiology, 30: 285-293; Li et al., 2001, J. Bacteriol., 183: 897-908. E. coli clinical strain UT189 was grown in LB in 96 well plates at room temperature for one or two days without shaking. E. coli laboratory strain JM109 was grown in LB plus 0.2% glucose in 96 well plates at room temperature for one day without shaking. To quantify the biofilm mass, the suspension culture was poured out and the biofilm was washed three times with water. The biofilm was stained with 0.1% crystal violet for 20 minutes. The plates were then washed three times with water. OD reading at 540 nm was measured to quantify the biofilm mass at the bottom of the wells. Then 95% ethanol was added to dissolve the dye at the bottom and on the wall and the OD reading at 540 nm was measured to quantify the total biofilm mass. To study the overall effect of the compounds (3.6 mg/mL in 100% ethanol as stock solution), it was added with the inoculation and a time course of biofilm mass was measured. Appropriate amounts of 100% ethanol were added to each sample to eliminate the effect of solvent. Each condition had 3-4 replicates on each plate and was performed over multiple days.

[2] = system: P. aeruginosa strain PAO1; assay: Rotating disk reactor (RDR) biofilm test with and without tobramycin, culturable bacteria; assay type: cell-based, Pseudomonas aeruginosa
Experimental: Biofilm formation of P. aeruginosa was evaluated using a standardized biofilm method with a rotating disk reactor (RDR). This method provides a model resembling the formation of biofilms in cystic fibrosis patients. The rotating disk reactor consists of a one-liter glass beaker fitted with a drain spout. The bottom of the vessel contains a magnetically driven rotor with six 1.27 cm diameter coupons constructed from polystyrene. The rotor consists of a star-head magnetic stir bar upon which a disk was affixed to hold the coupons. The vessel with the stir bar was placed on a stir plate and rotated to provide fluid shear. A nutrient solution (AB Trace Medium with 0.3 mM glucose, see Table 3 below for composition) was added through a stopper in the top of the reactor at a flow rate of 5 ml/min. The reactor volume was approximately 180 ml and varied slightly between reactors depending on the placement of the drain spout and the rotational speed of the rotor. At a volume of 180 ml, the residence time of the reactors was 36 minutes. The reactors were operated at room temperature (c.a. 26° C.).
For each test, two RDRs were operated in parallel with one receiving test compound and the other serving as an untreated control. The RDRs were sterilized by autoclave, then filled with sterile medium and inoculated with P. aeruginosa strain PAO1. The reactors were then incubated at room temperature in batch mode (no medium flow) for a period of 24 hours, after which the flow was initiated for a further 24 hour incubation. Test compounds were dissolved in 10 ml ethanol to achieve a concentration of 1.8 mg/ml. After the 48 hours of biofilm development described above, the 10 ml of ethanol containing the test compounds were added to the reactor to achieve a final concentration of approximately 50, 100, or 200 μg/ml. Control reactors received 10 ml of ethanol. The reactors were then incubated for an additional 24 hours in batch (no flow) mode. After this incubation period, the six coupons were removed from each reactor and placed in 12-well polystyrene tissue culture plates with wells containing either 2 ml of a 100 μg/ml tobramycin solution or 2 ml of phosphate-buffered saline (PBS). These plates were incubated at room temperature for two hours. The coupons were then rinsed by three transfers to plates containing 2 ml of fresh PBS. For each two RDR reactors run in parallel, four sets of three coupons were obtained: one set with no test compound treatment and no tobramycin treatment, one set with no test compound treatment and tobramycin treatment, one set treated with a test compound treatment and no tobramycin treatment, and one set treated with a test compound treatment and tobramycin. After rinsing, one coupon of each set of three was stained with a LIVE/DEAD® BacLight™ Bacterial Viability Kit (Molecular Probes, Eugene Oreg.) and imaged using epifluorescent microscopy. The remaining two coupons were placed in 10 ml of PBS and sonicated for five minutes to remove and disperse biofilm cells. The resulting bacterial suspensions were then serially diluted in PBS and plated on tryptic soy agar plates for enumeration of culturable bacteria. The plates were incubated for 24 hours at 37° C. before colony forming units (CFU) were determined.
The results are averages from experiments performed on three separate days for each test compound. The values reported are as loglo CFU.

[3] = system: E. coli clinical strain UT189 against bladder epithelial cells; assay: Binding to and invasion of bladder epithelial cells by E. coli; assay type: cell-based
Experimental: The effect of test compounds on bacterial invasion of E. coli clinical strain UT189 was studied as described in Elsinghorst, et al. 1994, Methods Enzymol, 236:405-420; and Martinez et al., 2000, EMBO J., 19:2803-2812. Epithelial bladder cells were grown in plates. Asiatic acid, corosolic acid, or ursolic acid were added at concentrations of 10 μg/ml, 20 μg/ml, or 40 μg/ml to bacteria and epithelial cells for approximately 5, 15, 30, or 60 minutes with approximately 10^7 CFU of E. coli. Binding was assessed at time zero and invasion was assessed at approximately 5, 15, 30, or 60 minutes from completing the mixture of compound, bacteria, and epithelial cells. As a control ethanol was added to cells to a final concentration of 0.1%. The effect of bacterial viability and bacterial adherence during the infection period was evaluated according to the methods described in Martinez et al., 2000, EMBO J., 19:2803-2812.

E. coli UT189[pCOMGFP] = assay: Biofilm pods (IBCs) in bladders of infected mice, intravesical compound, confocal microscopy; assay type: in vivo, Escherichia coli; settings: vs controls
Experimental: The procedures in this example has been previously reported by Justice, S. et al. Differentiation and development pathways of uropathogenic Escherichia coli in urinary tract pathogenesis. PNAS, 2004, 101(5), p. 1333-1338. Briefly, E. coli UT189[pCOMGFP] was prepared after retrieval from frozen stocks by inoculating appropriately in LB medium statically for approximately 20 hours. Cells were harvested and suspended in 1 ml of PBS. Cells were diluted appropriately to achieve approximately a 10^8 CFU or 10^7 CFU input into C3H/HeN mice (2 mice per group).
Mice were deprived of water for approximately two hours. In experiment 1, all mice were anesthetized with 0.15 cc ketamine cocktail. In experiment 2, all mice were anesthetized with isofluorane. In experiment 1, urine was dispelled from the bladders and approximately 40 μg/ml of test compound or an appropriate amount of ethanol as control was introduced into the bladders via catheterization of the urethra using a tubing coated tuberculin syringe. 30 minutes was allowed to elapse. In experiment 2, bladders were not pre-incubated with test compounds. Bladders were then expelled and an inoculum of 10^8 CFU (Experiment 1) or 10^7 CFU (Experiment 2) of E. coli containing 40 μg/ml of test compound or equivalent amount of ethanol as controls were introduced into the bladders as indicated above.
In experiment 1 five hours elapsed and in experiment 2 six hours elapsed, and then mice were anesthetized and sacrificed appropriately. The bladders were removed, bisected, stretched, and fixed in 3% paraformaldehyde for 1 hour at room temperature. Bladders were then permeabilized in 0.01% Triton/PBS for 10 minutes and counter stained with TOPRO3 (Molecular Probes) for 10 minutes for visualization by confocal microscopy. Bladders were mounted on Prolong antifade (Molecular Probes).

[4] = system: Pseudomonas aeruginosa PA01; assay: Inhibition of biofilm formation and growth, 96-well plates, crystal violet; assay type: cell-based; settings: for inhibited biofilm formation of P. aeruginosa PAO1: approximately 10 ug/ml, compared to the controls; for inhibitory effect on the growth of P. aeruginosa PA01: compared to controls
Experimental: An overnight culture of P. aeruginosa PA01 in LB+1% citrate was prepared. It was incubated at 37° C. shaker for 24 hours. A 1:20 dilution of the overnight culture was prepared. Test compounds are diluted appropriately with a volume of ethanol followed by shaking for approximately 5 minutes and then diluted with an appropriate volume of water.
Replicate 96-well plates are prepared, preferably two to four replicates, with appropriately diluted overnight culture and test compound in each well. Preferably, test compounds are prepared at 10 to 30 micrograms per milliliter. On each 96-well plate controls are appropriately prepared with at least one set of controls consisting of overnight culture and ethanol/water diluent and another set of controls consisting of growth media and ethanol/water diluent. Plates are covered with foil at room temperature and shaken for approximately 24 hours.
After shaking absorbance of the wells of the plates are determined, preferably at 630 nanometers. Liquid is than aspirated out of the wells and each well is filled with diluted crystal violet, preferably approximately 250 microliters of a 1:4 dilution, and allowed to stand for approximately 10 minutes. Each well of the plate is washed, preferably four times, with PBS with approximately one minute between each wash. After the final wash is aspirated out, the plate may be turned over onto paper towels to dump out excess PBS. 95% ethanol is added to each well, preferably 250 microliters. Absorbance of each well of a plate is determined, preferably at 540 nm. Preferably slight shaking is performed during the absorbance reading for approximately 5 minutes. Each well of the plate is than diluted […] with ethanol in a separate plate, preferably 145 ul of 95% ethanol and 5 uL from the original plate, and absorbance is determined. Preferably, slight shaking for approximately 3 minutes is performed.
Biofilm inhibition in each well is determined by subtracting the absorbance of the wells with test compounds from wells with controls containing overnight culture subtracting out controls with only media. A typical positive result of biofilm inhibition confirmed with replicates would be 30 percent to 80 percent less biofilm in the wells with test compound compared to the wells with controls of overnight culture.

[5] = system: methicillin-resistant Staphylococcus aureus; settings: cited from earlier work

C[C@@H]1CC[C@]2(C(=O)O)CCC3(C)C(=CCC4C5(C)C[C@@H](O)[C@H](O)C(C)(C)C5CCC43C)C2[C@H]1C (some centres unmarked) [Corosolic acid]
inhibition at 20 µg/mL [1]: ~85% | CFU, Test Compound ([2]; test compound 100 μg/ml 24 h, no tobramycin, average of three days): 7.8 loglo CFU | CFU, Tobramycin and Test Compound ([2]; test compound 100 μg/ml 24 h, then tobramycin 100 μg/ml 2 h, average of three days): 5.3 loglo CFU | reduced invasion of E. coli into bladder epithelial cells ([3]; 20 μg/ml, 60 minutes, n=4): 65% | reduced invasion of E. coli into bladder epithelial cells ([3]; 40 µg/ml, 5 minutes, triplicate, compared to the controls): 10% | reduced invasion of E. coli into bladder epithelial cells ([3]; 40 µg/ml, 15 minutes, triplicate, compared to the controls): 70% | reduced invasion of E. coli into bladder epithelial cells ([3]; 40 μg/ml, 60 minutes, separate experiments (n=4 to 7)): 90% | reduced invasion of E. coli into bladder epithelial cells ([3]; 40 µg/ml, 60 minutes, triplicate, compared to the controls): 90% | reduction in biofilm pods or IBCs in the bladders of mice (E. coli UT189[pCOMGFP]; experiment 1: C3H/HeN mice, 40 μg/ml intravesical with 30 min pre-incubation, 10^8 CFU, five hours): 94% | reduction in large biofilm pods or large IBCs in the bladders of mice (E. coli UT189[pCOMGFP]; experiment 2: C3H/HeN mice, 40 μg/ml in inoculum, no pre-incubation, 10^7 CFU, six hours): ~60%

NC[C@H]1O[C@H](O[C@H]2[C@H](O)[C@@H](O[C@H]3O[C@H](CO)[C@@H](O)[C@H](N)[C@H]3O)[C@H](N)C[C@@H]2N)[C@H](N)C[C@@H]1O [Tobramycin, reference compound]
CFU, Tobramycin ([2]; tobramycin 100 μg/ml 2 h, no test compound, parallel reactor of the experiment): 5.8 loglo CFU and 6.5 loglo CFU and 6.1 loglo CFU and 6.7 loglo CFU and 6.2 loglo CFU

C=C1CCC2(C(=O)O)CCC3(C)C(=CCC4C5(C)CCC(O)C(C)(C)C5CCC43C)C2C1C (centres unmarked) [Pygenic acid B, Pygenic Acid B]
inhibited biofilm formation of P. aeruginosa PAO1 [4]: ~30% | inhibitory effect on the growth of P. aeruginosa PA01 [4]: no inhibitory effect

Echinocystic Acid
inhibited biofilm formation of P. aeruginosa PAO1 [4]: ~25% | inhibitory effect on the growth of P. aeruginosa PA01 [4]: no inhibitory effect

C[C@@H]1CC[C@]2(C(=O)O)CC[C@]3(C)C(=CCC4[C@@]5(C)C[C@@H](O)[C@@H](O)C(C)(C)C5CC[C@]43C)C2[C@H]1C (some centres unmarked) [Pygenic acid A, Pygenic Acid A]
inhibited biofilm formation of P. aeruginosa PAO1 [4]: about 40% | inhibitory effect on the growth of P. aeruginosa PA01 [4]: no inhibitory effect

CC(=O)OC1CCC2(C)C(CCC3(C)C2CC=C2[C@@H]4CC(C)(C)CCC4(C(=O)O)CCC23C)C1(C)C (some centres unmarked) [3-acetyl oleanolic acid]
inhibited biofilm formation of P. aeruginosa PAO1 [4]: ~50% | inhibitory effect on the growth of P. aeruginosa PA01 [4]: no inhibitory effect

3-hydroxy-12,20(30) ursadienoic acid [3-hydroxy-12, 20(30) ursadienoic acid]
inhibited biofilm formation of P. aeruginosa PAO1 [4]: about 40% | inhibitory effect on the growth of P. aeruginosa PA01 [4]: no inhibitory effect

CO[C@H]1/C=C/O[C@@]2(C)Oc3c(C)c(O)c4c(O)c(c(/C=N/N5CCN(C)CC5)c(O)c4c3C2=O)NC(=O)/C(C)=C\C=C\[C@H](C)[C@H](O)[C@@H](C)[C@@H](O)[C@@H](C)[C@H](OC(C)=O)[C@@H]1C [rifampin]
eradication of methicillin-resistant Staphylococcus aureus in a biofilm ([5]; biofilm, urinary catheters): unable to eradicate | effect against planktonic, or suspended cells ([5]; planktonic cells): effective
